Data: patent publication US7867702B2, “Screen for novel protein inhibitors based upon engineered cell line containing an inducible overactivity gene and compensatory gene” (priority 2003, dated 2011)

Key:
[1] = tested on: SF58; assay: Microtiter-format growth of SF58 with IPTG (assay validation, positive control); assay type: cell-based, E. coli; settings: 0.31 mM IPTG and above vs 0 to 0.16 mM IPTG, 30° C., after 18 hours
Description: The first part of an assay transfer & validation procedure involves the reproduction of the results in microtiter format. […] All 48 replicate cultures of the same microtiter plate of FIG. 3 behaved similarly. […] In addition, after 18 h (6.4×10^4 s) the OD's of the induced cultures are well above controls.
A series of experiments were then performed to assess the signal as a function of the starting inoculum (i.e. the theoretical OD of the culture present in a microtiter well). The data (not shown) indicate that there is no significant difference in the SF58-IPTG growth curve if the inoculum is obtained by dilution of an overnight culture or of an actively growing 42° C.-culture. Consequently, the time for measuring the OD was set at 18 h, and the procedure used was to grow 5 μl of SF53 or SF58 in 30 ml glucose CAA medium (with […]) overnight at 42° C. until the OD600 was 1.2. The stock was diluted 1:100 in glucose CAA (without […]). 90 μl of this was dispensed into each well, with 10 μl of sample. […]
Following the procedure outlined above, a screening of 4240 microbial extracts was performed. Each 96-microtiter plate contained as controls four wells inoculated with SF53, four wells inoculated with SF58 and 8 wells inoculated with SF58 in the presence of 2.5 mM IPTG. […]

[2] = tested on: strain SF58 (dnaA219, rnh::cam/pdnaA[1-86]-biotin); assay: Growth of strain SF58 at 30° C. with IPTG-induced Domain I of DnaA (flask cultures, OD450); assay type: cell-based, E. coli; settings: for difference in OD450, induced vs uninduced culture: 10 parallel cultures
Description: The following experiments were performed to provide evidence that strain SF53 will survive when a drug has inactivated the DnaA protein. Such evidence can be obtained without a lead drug, by using production of the N-terminal domain (Domain I amino acids 1 to 86) of wild type DnaA. Domain I of DnaA is important for oligomerization and formation of proper initiation complexes. […] Strain SF53 was transformed with a plasmid carrying an IPTG-inducible gene encoding biotin-tagged Domain I (pBEX5BA-dnaA[1-86]-biotin), transformants checked, and the strain named SF58 (Table 1).
The growth of strain SF58 was tested at three different concentrations of IPTG. An overnight culture of strain SF58 grown at 42° C. was diluted 1:1000 in fresh ABB1 glucose CAA medium and split into five flasks. Culture nos. 1 to 4 were grown at 30° C. and culture no. 5 at 42° C. IPTG was added to culture no. 2, 3 and 4 at a concentration of 0.25, 0.5 and 1 mM, respectively, at the time of dilution. Growth curves were followed by measurement of OD450 for 8 hours. […] The OD450 was less than 0.03 at all time points.
The concentrations of Domain I present after 4 generations growth in the presence of the three different concentrations of IPTG, was assessed by Western blot. A ten-fold difference in OD450 between the culture grown without IPTG (culture no. 1) and the culture grown with 1 mM IPTG (culture no. 4) was obtained after about 10 hours. Thus, when performing a drug screen with the dnaA219rnh strain, a positive hit will be detected by a ten-fold difference in OD450 after about 10 hours in the presence of the drug.
To determine the robustness of the screen and also at which time, in a high throughput assay, it is optimal to measure the difference in OD450 we made the following measurements (FIG. 2). Essentially the same experiment as in FIG. 1 was performed, but OD450 was measured at only three time points, 20 h, 27 h and 48 h, in 10 different parallel cultures. A 20-40 fold difference was obtained after 20 h and after 27 h. After 48 h a background in the uninduced culture started to appear and the difference dropped to about 5 fold. Therefore, measurements of OD450 in high throughput screens should be performed after 10-30 hours of incubation.

| Molecule | OD405 of induced SF58 cultures compared with controls [1] | difference in OD450 between culture grown without IPTG and culture grown with IPTG ([2]; 1 mM IPTG, 30° C., after about 10 hours) | growth rate of SF58 cultures grown at 30° C. with IPTG ([2]; IPTG 0.25, 0.5 and 1 mM, 30° C., OD450 followed for 8 hours) | difference in OD450, induced vs uninduced culture ([2]; after 20 h, 30° C.) | difference in OD450, induced vs uninduced culture ([2]; after 27 h, 30° C.) | difference in OD450, induced vs uninduced culture ([2]; after 48 h, 30° C.) | growth of the strain at 30° C. ([2]; induction of Domain I by IPTG in SF58, 30° C.) |
| --- | --- | --- | --- | --- | --- | --- | --- |
| CC(C)S[C@@H]1O[C@H](CO)[C@H](O)[C@H](O)[C@H]1O [IPTG] | significantly higher than controls | ten-fold | increasing growth rates with increasing concentration of IPTG | 20-40 fold | 20-40 fold | about 5 fold | – |
| Domain I: N-terminal domain (amino acids 1 to 86) of wild type DnaA, biotin-tagged, expressed in SF58; poisons initiation complexes (protein, UniProt P03004 1-86, looked up, fragment, biotin tag, N-terminal domain (amino acids 1 to 86) of wild type DnaA, biotin-tagged, expressed in SF58; poisons initiation complexes) MSLSLWQQCLARLQDELPATEFSMWIRPLQAELSDNTLALYAPNRFVLDWVRDKYLNNINGLLTSFCGADAPQLRFEVGTKPVTQT | – | – | – | – | – | – | restored |
